How the values were obtained:
[1] = Henry solubility constant Hcp at 293 K (mol/(m3 Pa)); settings: reference: ten Hulscher et al. (1992)
[2] = Henry solubility constant Hcp at 298.15 K (mol/(m3 Pa)); settings: reference: ten Hulscher et al. (1992)

## Clc1cc(Cl)c(Cl)c(Cl)c1 [1,2,3,5-tetrachlorobenzene]
[1]
  Henry solubility constant Hcp at 293 K: 0.01

## Clc1cccc(Cl)c1Cl [1,2,3-trichlorobenzene]
[1]
  Henry solubility constant Hcp at 293 K: 0.014

## Clc1cc(Cl)cc(Cl)c1 [1,3,5-trichlorobenzene]
[1]
  Henry solubility constant Hcp at 293 K: 0.0052

## Clc1ccc(Cl)c(-c2cc(Cl)ccc2Cl)c1 [2,2',5,5'-tetrachlorobiphenyl]
[2]
  Henry solubility constant Hcp: 0.042

## Clc1ccc(Cl)c(-c2ccccc2)c1 [2,5-dichlorobiphenyl]
[2]
  Henry solubility constant Hcp: 0.023

## c1ccc2c(c1)cc1ccc3cccc4ccc2c1c34 [benzo[a]pyrene]
[2]
  Henry solubility constant Hcp: 22

## c1ccc2c(c1)-c1cccc3c1c-2cc1ccccc13 [benzo[b]fluoranthene]
[2]
  Henry solubility constant Hcp: 15

## c1cc2ccc3ccc4ccc5cccc6c(c1)c2c3c4c56 [benzo[ghi]perylene]
[2]
  Henry solubility constant Hcp: 30

## c1ccc2c(c1)-c1cccc3cccc-2c13 [benzo[jk]fluorene]
[2]
  Henry solubility constant Hcp: 1.1

## c1ccc2cc3c(cc2c1)-c1cccc2cccc-3c12 [benzo[k]fluoranthene]
[2]
  Henry solubility constant Hcp: 17

## c1ccc2c(c1)-c1ccc3ccc4cccc5cc-2c1c3c45 [indeno[1,2,3-cd]pyrene]
[2]
  Henry solubility constant Hcp: 28

From Sander's compilation of Henry's law constants (doi:10.1002/etc.5620111109)
